Laboratory results taken from EP0897904B1, “Fungicidal 2-methoxybenzophenones” (BASF AKTIENGESELLSCHAFT, priority 1997, dated 1999).
Where two headings read alike, the source gives them in different places.

Key:
Assay type in all cases: in vivo
[1] = test system: Blumeria (Erysiphe) graminis DC. f.sp. tritici E. Marchal; test: Curative and residual control test, Wheat Powdery Mildew (WPM); conditions: read-out: Disease control (% efficacy)
Source text: (§1) • (a) Wheat Powdery Mildew (WPM): HOST: Wheat (Triticum aestivum L.) variety Kanzler PATHOGEN: Blumeria (Erysiphe) graminis DC. f.sp. tritici E. Marchal • (b) Cucumber Powdery Mildew (QPM): HOST: Cucumber (Cucumis sativus L.) variety Bush pickle PATHOGEN: Erysiphe cichoracearum DC
(§2) This test procedure is for curative and residual control of powdery mildew diseases. • 1. Wheat seed (approximately 8-10/pot) or cucumber seed (1 seed / pot) is planted in 6 cm diameter plastic pots and maintained in the greenhouse. • 2. When the primary leaf (wheat) or the cotyledons (cucumber) is/are fully expanded, formulated test compounds are sprayed with a single nozzle overhead track sprayer at a rate of 200 l/ha. Plants are then allowed to air-dry. • 3. Inoculation precedes treatment by 2 or 3 days in the case of curative evaluations and follows treatment by 3 or 4 days in case of residual evaluations. For inoculation, plants are set up on greenhouse benches with bottom watering mats and inoculated by dusting them with conidia from powdery mildew infected plants (stock cultures at an age of 10-14 days). Between inoculation and treatment for curative evaluations and between treatment and inoculation for residual evaluations, plants are maintained in the greenhouse with bottom watering. • 4. Disease on the primary leaf (wheat) or on the cotyledons (cucumber) as percent leaf area with disease symptoms/signs is evaluated about 7 days after inoculation. In the case of wheat, the tips and bases of the leaves are excluded from the evaluation. Percent disease control is then calculated by the following formula: % disease control = 100 -(% infection in treated plants)/(% infection in untreated plants)x 100 [formula]
(§3) • 1. Technical compounds are formulated in a solvent/surfactant system consisting of 5% acetone and 0.05% Tween 20 in deionized water. Compounds are dissolved in acetone prior to addition of the water; the Tween 20 can be added through either the acetone or the water. Dilutions are made using the solvent/surfactant system. Formulated compounds are prepared using deionized water. • 2. Two kinds of controls are included: • Plants treated with the solvent/surfactant solution and inoculated (Solvent Blank). • Untreated plants which are inoculated (Inoculated Control).

[2] = test system: Blumeria (Erysiphe) graminis DC. f.sp. tritici E. Marchal; test: Zero day protectant test, Wheat Powdery Mildew (WPM); conditions: wheat variety Kanzler, 0 day protectant test, side-by-side, technical material in 0.5% acetone 0.05% Tween 20 water
Source text: (§4) • (a) Wheat Powdery Mildew (WPM): HOST: Wheat (Triticum aestivum L.) variety Kanzler PATHOGEN: Blumeria (Erysiphe) graminis DC. f.sp. tritici E. Marchal • (b) Barley Powdery Mildew (BPM): HOST: Barley (Hordeum vulgare L.) variety Golden Promise PATHOGEN: Blumeria (Erysiphe) graminis DC. f.sp. hordei E. Marchal
(§5) This test is a zero day protectant test for control of wheat and barley powdery mildews. • 1. Wheat or barley seed (approximately 8-10/pot) is planted in 6 cm diameter plastic pots and maintained in the greenhouse. • 2. When the primary leaf is fully expanded, formulated test compounds are sprayed with a single nozzle overhead track sprayer at a rate of 200 l/ha. Plants are then allowed to air-dry. • 3. Inoculation follows about three hours after compound application. Plants are set up on greenhouse benches with bottom watering mats and inoculated by dusting them with conidia from powdery mildew infected plants (stock cultures at an age of 10-14 days). • 4. Disease on the primary leaf as percent leaf area with disease symptoms/signs is evaluated about 7 days after inoculation. The tips and bases of the leaves are excluded from the evaluation. Percent disease control is then calculated by the following formula: % disease control = 100 -(% infection in treated plants)/(% infection in untreated plants)x 100 [formula]
as §3, with “system. Test compounds are typically tested over a range of concentrations covering several orders of magnitude and then ED values are calculated for comparison of compounds.” for “system.”
(§6) Compounds applied as technical material formulated in 0.5% acetone 0.05% Tween 20 water

[3] = test system: Blumeria (Erysiphe) graminis DC. f.sp. hordei E. Marchal; test: Zero day protectant test, Barley Powdery Mildew (BPM); conditions: barley variety Golden Promise, 0 day protectant test, side-by-side, technical material in 0.5% acetone 0.05% Tween 20 water
Source text: as §4, §5
as §3, with “system. Test compounds are typically tested over a range of concentrations covering several orders of magnitude and then ED values are calculated for comparison of compounds.” for “system.”
as §6

[4] = test system: Erysiphe cichoracearum DC; test: Curative and residual control test, Cucumber Powdery Mildew (QPM); conditions: Golovinomyces cichoracearum, 72 h, read-out: Disease control (% efficacy); for Emax at 12.5 ppm: QPM 3 da R (3 day residual), 12,5 ppm; for Emax at 125 ppm / Emax at 1250 ppm: QPM 3 da R (3 day residual)
Source text: as §1, §2, §3

[5] = 72 h, WPM 3 da C (3 day curative)
[6] = 72 h, WPM 3 da C (3 day curative), 125 ppm
[7] = 96 h, WPM 4 da R (4 day residual)
[8] = 96 h, WPM 4 da R (4 day residual), 125 ppm
[9] = 48 h, WPM 2 da C (2 day curative), 12,5 ppm, Test B
[10] = 48 h, WPM 2 da C (2 day curative), 125 ppm, Test B
[11] = 48 h, WPM 2 da C (2 day curative), 1250 ppm, Test B
[12] = 72 h, WPM 3 da R (3 day residual), 12,5 ppm, Test B
[13] = 72 h, WPM 3 da R (3 day residual), 125 ppm, Test B
[14] = 72 h, WPM 3 da R (3 day residual), 1250 ppm, Test B

Q: For COc1cc(C)c(C(=O)c2c(OC)ccc(C(F)(F)F)c2C)c(OC)c1OC [Example 64, 6,6'-dimethyl-2,2',3',4'-tetramethoxy-5-trifluoromethyl-benzophenone], which percent disease control at 0.2 ppm [1, 5] is on record?
A: 10%

Q: What about the percent disease control at 1 ppm [1, 5] of the same compound?
A: 37%

Q: What about the percent disease control at 5 ppm [1, 5] of the same compound?
A: 48%

Q: What about the percent disease control at 25 ppm [1, 5] of the same compound?
A: 60%

Q: What about the percent disease control at 125 ppm [1, 6] of the same compound?
A: 72%

Q: What about the percent disease control at 0.2 ppm [1, 7] of the same compound?
A: 51%

Q: What about the percent disease control at 1 ppm [1, 7] of the same compound?
A: 89%

Q: What about the percent disease control at 5 ppm [1, 7] of the same compound?
A: 99%

Q: And the percent disease control at 25 ppm [1, 7]?
A: 100%

Q: What about the percent disease control at 125 ppm [1, 8] of the same compound?
A: 100%

Q: For Fc1ccc(Oc2ccnc3cc(Cl)cc(Cl)c23)cc1 [Quinoxyfen, reference compound], which “ED90 (ppm)” value [2] is on record?
A: 12 ppm

Q: What about the “ED90 (ppm)” value [3] of the same compound?
A: 26 ppm

Q: How did the “ED90 (ppm)” value [2] turn out when COc1cc(C)c(C(=O)c2c(OC)ccc(Br)c2C)c(OC)c1OC [Example 6, 5-bromo-6,6'-dimethyl-2,2',3',4'-tetramethoxy-benzophenone] was run?
A: 0.1 ppm

Q: What about the percent disease control at 12.5 ppm ([1]; 48 h, WPM 2 da C (2 day curative), 12,5 ppm, Test A) of the same compound?
A: 90%

Q: What about the Emax at 12.5 ppm [1, 9] of the same compound?
A: 61%

Q: What about the percent disease control at 125 ppm ([1]; 48 h, WPM 2 da C (2 day curative), 125 ppm, Test A) of the same compound?
A: 95%

Q: And the Emax at 125 ppm [1, 10]?
A: 89%

Q: And the percent disease control at 1250 ppm ([1]; 48 h, WPM 2 da C (2 day curative), 1250 ppm, Test A)?
A: 98%

Q: What about the Emax at 1250 ppm [1, 11] of the same compound?
A: 87%

Q: What about the percent disease control at 0.2 ppm [1, 5] of the same compound?
A: 17%

Q: And the percent disease control at 1 ppm [1, 5]?
A: 27%

Q: And the percent disease control at 5 ppm [1, 5]?
A: 43%

Q: What about the percent disease control at 25 ppm [1, 5] of the same compound?
A: 60%

Q: And the percent disease control at 125 ppm [1, 6]?
A: 64%

Q: And the percent disease control at 12.5 ppm ([1]; 72 h, WPM 3 da R (3 day residual), 12,5 ppm, Test A)?
A: 100%

Q: And the percent disease control at 12.5 ppm [1, 12]?
A: 100%

Q: And the percent disease control at 125 ppm ([1]; 72 h, WPM 3 da R (3 day residual), 125 ppm, Test A)?
A: 100%

Q: What about the percent disease control at 125 ppm [1, 13] of the same compound?
A: 100%

Q: What about the percent disease control at 1250 ppm ([1]; 72 h, WPM 3 da R (3 day residual), 1250 ppm, Test A) of the same compound?
A: 100%

Q: What about the percent disease control at 1250 ppm [1, 14] of the same compound?
A: 100%

Q: What about the percent disease control at 0.2 ppm [1, 7] of the same compound?
A: 58%

Q: And the percent disease control at 1 ppm [1, 7]?
A: 90%

Q: What about the percent disease control at 5 ppm [1, 7] of the same compound?
A: 100%

Q: What about the percent disease control at 25 ppm [1, 7] of the same compound?
A: 100%

Q: And the percent disease control at 125 ppm [1, 8]?
A: 100%

Q: What about the “ED90 (ppm)” value [3] of the same compound?
A: 0.9 ppm

Q: And the Emax at 12.5 ppm ([4]; Test A)?
A: 2%

Q: And the Emax at 12.5 ppm ([4]; Test B)?
A: 35%

Q: What about the Emax at 125 ppm ([4]; Test A) of the same compound?
A: 92%

Q: What about the Emax at 125 ppm ([4]; Test B) of the same compound?
A: 92%

Q: And the Emax at 1250 ppm ([4]; Test A)?
A: 100%

Q: What about the Emax at 1250 ppm ([4]; Test B) of the same compound?
A: 100%

Q: COc1cc(C)c(C(=O)c2c(OC)ccc(Br)c2Cl)c(OC)c1OC [Example 4, 5-bromo-6-chloro-6'-methyl-2,2',3',4'-tetramethoxy-benzophenone] was tested. Which “ED90 (ppm)” value [2] did it give?
A: 5 ppm

Q: And the percent disease control at 12.5 ppm [1, 9]?
A: 55%

Q: And the percent disease control at 125 ppm [1, 10]?
A: 71%

Q: What about the percent disease control at 1250 ppm [1, 11] of the same compound?
A: 61%

Q: And the percent disease control at 12.5 ppm [1, 12]?
A: 99%

Q: What about the percent disease control at 125 ppm [1, 13] of the same compound?
A: 100%

Q: What about the percent disease control at 1250 ppm [1, 14] of the same compound?
A: 100%

Q: What about the “ED90 (ppm)” value [3] of the same compound?
A: 7 ppm

Q: And the Emax at 12.5 ppm ([4]; Test B)?
A: 8%

Q: What about the Emax at 125 ppm ([4]; Test B) of the same compound?
A: 97%

Q: What about the Emax at 1250 ppm ([4]; Test B) of the same compound?
A: 100%

Q: What does the source list for COc1cc(C)c(C(=O)c2c(OC)cccc2C(F)(F)F)c(OC)c1OC [Example 65, 6'-methyl-2,2',3',4'-tetramethoxy-6-trifluoromethyl-benzophenone]?
A: percent disease control at 0.2 ppm [1, 5]: 10%; percent disease control at 1 ppm [1, 5]: 23%; percent disease control at 5 ppm [1, 5]: 23%; percent disease control at 25 ppm [1, 5]: 48%; percent disease control at 125 ppm [1, 6]: 58%; percent disease control at 0.2 ppm [1, 7]: 25%; percent disease control at 1 ppm [1, 7]: 50%; percent disease control at 5 ppm [1, 7]: 93%; percent disease control at 25 ppm [1, 7]: 99%; percent disease control at 125 ppm [1, 8]: 100%
